Measured values reported in patent US20100137144A1, “METHOD AND MEANS FOR DETECTING AND/OR QUANTIFYING HIERARCHICAL MOLECULAR CHANGE OF A CELL IN RESPONSE TO AN EXTERNAL STIMULUS” (Eppendorf Array Technologies S.A., priority 2005, published 2010).
“Also recorded” adds a separate entry of the source.

Legend:
[1] = system: MCF7 cells; experiment: DualChip human breast cancer microarray: gene expression in stimulated MCF7 cells; assay type: cell-based; details: 24 h; for Number of genes whose expression level is modified: out of 210
[2] = system: AP1 (c-Jun), STAT1, Elk-1, p53, c-Myc, ATF2, NFATc1 and MEF2 in MCF7 cells; experiment: TF Chip MAPK microarray: activated transcription factors in stimulated MCF7 cells; assay type: cell-based, human
[3] = system: U937 cells; experiment: DualChip human RNAi side effect microarray: gene expression in stimulated U937 cells; assay type: cell-based; details: for Number of genes exclusively regulated by this interferon: from 89 significant genes
Text: The DualChip® human RNAi side effect (Eppendorf, Germany) was used for assay of the changes in the gene expression.
The microarray contains, in triplicates, capture probes to analyze the expression of 260 human genes. In order to evaluate the entire experiment, several positive and negative controls (for hybridization and detection) as well as special capture probes for normalization are included. The DualChip® consists of two microarrays on one slide that has already been framed with a hybridization frame.
The instructions provided by the supplier were followed for the hybridization and the analysis of the results.

[4] = system: AP1 (c-Jun), STAT1, Elk-1, p53, c-Myc, ATF2, NFATc1 and MEF2 in U937 cells; experiment: TF Chip MAPK microarray: activated transcription factors in stimulated U937 cells; assay type: cell-based, human; details: 1000 U/ml
Experimental: They are stimulated at 10.10^6 cells/75 cm^2 flask with IFNγ (1000 U/ml) for 15 min and 24 h or left untreated.
The activation of transcription factors is monitored on microarrays using the TF Chip MAPK kit from Eppendorf (Germany). The arrays contain double stranded DNA molecules as capture probes for the TF binding. The TF Chip MAPK allows the assay of AP1 (c-Jun), STAT1, Elk-1, p53, c-Myc, ATF2, NFATc1 and MEF2.
A blocking step is performed in a Blocking Solution (TF Chip MAPK kit, Eppendorf, Germany) for 1 h at RT, followed by a washing step using the Washing Buffer A (TF Chip MAPK kit, Eppendorf, Germany). The nuclear extracts are prepared as described in WO 01/73115. They are diluted in the Sample Dilution Solution and Binding Solution (TF Chip MAPK kit, Eppendorf, Germany) and contacted with the arrays. Incubation is performed for one hour at room temperature and under agitation at 600 rpm. Samples are removed and microarrays are washed 3 times.
A mix of primary antibodies (Primary Antibody Cocktail; TF Chip MAPK kit, Eppendorf, Germany), each specifically recognizing the activated form of a transcription factor to be detected and diluted in the Primary Antibody Solution (TF Chip MAPK kit, Eppendorf, Germany), is contacted with the microarrays for 1 h at RT, followed by 3 washing steps. Each microarray is then contacted with Cy3-labeled secondary antibodies under indirect light for 45 min at RT, followed by washing.
Hybridization chambers are removed, and slides are rinsed with Washing Buffer B (TF Chip MAPK kit, Eppendorf, Germany) and dried. A fluorescence detection of signals is performed by scanning slides using a laser confocal scanner “ScanArray” (Packard, USA) at a resolution of 10 μm. Signals are analyzed using the TF Chip MAPK Data analysis software.
The experiment was performed as described in example 1 with the cells being stimulated for 15 min and 24 h with IFNγ or IFNα at the same concentration (1000 U/ml).
The assays were performed on the TF Chip MAPK kit and on the DualChip® human RNAi side effect (Eppendorf, Germany) as in example 1. Table 2 presents the ratios for the genes whose values were found quantitative as explained in example 1. However, we investigated further the genes which were found positive for the IFNα response. For these genes, we incorporated into the table the values for the genes determined as quantitative for IFNγ but also the values for two genes, SERPINB2 and IFIT2, which were found qualitative, and the values for 4 other genes for which the ratios were significant when a confidence interval of 90% rather than the normal 95% is considered. These values are presented for sake of completing the information on the comparison between the two treatments and are marked with an asterisk.

For C[C@]12CC[C@@H]3c4ccc(O)cc4CC[C@H]3[C@@H]1CC[C@@H]2O [β-Estradiol, β-estradiol], the “Number of genes whose expression level is modified” value ([1]; 1 μM) was 50 genes, the “Activation state of c-Jun, ATF2, Elk-1 and STAT1” value ([2]; MCF7 cells, 1 μM) was “did not highlight any modification in the activation state” and the “Activation of c-Myc” value ([2]; MCF7 cells, 1 μM, 24 h, cells confluent) was “reduced”. For the same compound, the “Activation of p53” value ([2]; MCF7 cells, 1 μM, 24 h, cells confluent, possibly not specific to the treatment) was “triggered” and the “Activation of c-Myc” value ([2]; sub-confluent MCF7 cells, 1 μM, 4 h) was “fast activation”.
For IFNα, the “Number of genes exclusively regulated by this interferon” value ([3]; 24 h, 1000 U/ml) was 6 genes and the “Activation of transcription factor STAT1” value ([4]; 15 min, vs unstimulated cells) was “the only TF showing a specific signal in the treated cells”.
In the case of “IFNγ: interferon γ, used at 1000 U/ml as stimulus of U937 cells”, the “Number of genes affected at the two stimulation times” value ([3]; 15 min and 24 h) is reported as “Five”, the “Differential expression of genes BAX and BCLX” value ([3]; 1000 U/ml) is reported as “not found to be differentially expressed” and the “Number of genes whose expression level varies significantly” value ([3]; 1000 U/ml, 15 min and 24 h, quantitative analysis, 260 genes on array) is reported as 81 genes. The “Expression level of gene FOS” value ([3]; 1000 U/ml, 24 h) was “returned to a basal level”, the “Number of genes exclusively regulated by this interferon” value ([3]; 24 h, 1000 U/ml) was 62 genes and the “Number of genes specifically affected by a 15 min treatment” value ([3]; out of 81) was 4 genes. The “Number of genes specifically modified after a 24 h treatment” value ([3]; out of 81) was 72 genes, the “Activation of transcription factor MEF2” value [4] was “activated in IFNγ stimulated and non stimulated conditions” and the “Activation of transcription factor STAT1” value ([4]; 15 min, vs unstimulated cells) was “specifically activated; also recorded: fast activation; also recorded: the only TF showing a specific signal in the treated cells”. For the same compound, the “Activation of transcription factor STAT1” value ([4]; 24 h) was “disappears after 24 h” and the “Activation of the 7 other transcription factors (AP1 (c-Jun), Elk-1, p53, c-Myc, ATF2, NFATc1, MEF2)” value ([4]; vs unstimulated cells) was “None of the 7 other ones (AP1 (c-Jun), Elk-1, p53, c-Myc, ATF2, NFATc1 and MEF2) were activated”.
For hydrogen peroxide [H2O2], the “Regulation of genes p53, bcl-x and thrombospondin-1” value ([1]; 200 μM) was “not shown experimentally to be regulated”, the “Number of apoptotic pathway genes affected (BAG and BAX)” value ([1]; 200 μM, of 9 on the array) was 2 genes and the “Number of genes whose expression level is modified” value ([1]; 200 μM) was 16 genes. For the same compound, the “Expression ratio, gene BAG-1” value ([1]; 200 μM, vs untreated cells) was 1.65, the “Expression ratio, gene BAX” value ([1]; 200 μM, vs untreated cells) was 1.86 and the “Expression ratio, gene CTSD” value ([1]; 200 μM, vs untreated cells) was 1.65. The “Expression ratio, gene FOXM1” value ([1]; 200 μM, vs untreated cells) was 0.55, the “Expression ratio, gene K-alpha-1” value ([1]; 200 μM, vs untreated cells) was 0.63 and the “Expression ratio, gene MCM7” value ([1]; 200 μM, vs untreated cells) was 0.57. For the same compound, the “Expression ratio, gene MDM2” value ([1]; 200 μM, vs untreated cells) was 1.73, the “Expression ratio, gene MKi67” value ([1]; 200 μM, vs untreated cells) was 0.56 and the “Expression ratio, gene MYBL2” value ([1]; 200 μM, vs untreated cells) was 0.53. For the same compound, the “Expression ratio, gene Muc1” value ([1]; 200 μM, vs untreated cells) was 1.64, the “Expression ratio, gene NIFU” value ([1]; 200 μM, vs untreated cells) was 1.53 and the “Expression ratio, gene ODC” value ([1]; 200 μM, vs untreated cells) was 0.61. The “Expression ratio, gene PPP1CB” value ([1]; 200 μM, vs untreated cells) was 0.62, the “Expression ratio, gene STMN1” value ([1]; 200 μM, vs untreated cells) was 0.54 and the “Expression ratio, gene TOB” value ([1]; 200 μM, vs untreated cells) was 1.63. For the same compound, the “Expression ratio, gene p21 (CDKN1A)” value ([1]; 200 μM, vs untreated cells) was 3.26, the “Activation state of c-Jun, Elk-1 and STAT1” value ([2]; MCF7 cells, 200 μM) was “did not highlight any modification in the activation state” and the “Activation of ATF2, c-Myc, MEF2 and NFATc1” value ([2]; MCF7 cells, 200 μM, 3 h) was “suppressed”. The “Activation of transcription factor p53” value ([2]; MCF7 cells, 200 μM, 3 h and 24 h) was “activation of p53” and the “Activation of ATF2, c-Myc, MEF2 and NFATc1” value ([2]; MCF7 cells, 200 μM, 24 h) was “restored to a basal level”.
